The values that follow come from article PMC3849095, “Trans-chalcone and quercetin down-regulate fatty acid synthase gene expression and reduce ergosterol content in the human pathogenic dermatophyte Trichophyton rubrum” (BMC Complementary and Alternative Medicine, 2013).

Read-outs that look alike come from different tables or passages of the source.

For the assay, the target named is T1, Fatty acid synthase (FAS) (Saccharomyces cerevisiae, UniProt P07149+P19097).
T1 construct: gene FAS1; with FAS2 (alpha subunit of the yeast FAS complex)
T1 sequence (P19097 whole entry): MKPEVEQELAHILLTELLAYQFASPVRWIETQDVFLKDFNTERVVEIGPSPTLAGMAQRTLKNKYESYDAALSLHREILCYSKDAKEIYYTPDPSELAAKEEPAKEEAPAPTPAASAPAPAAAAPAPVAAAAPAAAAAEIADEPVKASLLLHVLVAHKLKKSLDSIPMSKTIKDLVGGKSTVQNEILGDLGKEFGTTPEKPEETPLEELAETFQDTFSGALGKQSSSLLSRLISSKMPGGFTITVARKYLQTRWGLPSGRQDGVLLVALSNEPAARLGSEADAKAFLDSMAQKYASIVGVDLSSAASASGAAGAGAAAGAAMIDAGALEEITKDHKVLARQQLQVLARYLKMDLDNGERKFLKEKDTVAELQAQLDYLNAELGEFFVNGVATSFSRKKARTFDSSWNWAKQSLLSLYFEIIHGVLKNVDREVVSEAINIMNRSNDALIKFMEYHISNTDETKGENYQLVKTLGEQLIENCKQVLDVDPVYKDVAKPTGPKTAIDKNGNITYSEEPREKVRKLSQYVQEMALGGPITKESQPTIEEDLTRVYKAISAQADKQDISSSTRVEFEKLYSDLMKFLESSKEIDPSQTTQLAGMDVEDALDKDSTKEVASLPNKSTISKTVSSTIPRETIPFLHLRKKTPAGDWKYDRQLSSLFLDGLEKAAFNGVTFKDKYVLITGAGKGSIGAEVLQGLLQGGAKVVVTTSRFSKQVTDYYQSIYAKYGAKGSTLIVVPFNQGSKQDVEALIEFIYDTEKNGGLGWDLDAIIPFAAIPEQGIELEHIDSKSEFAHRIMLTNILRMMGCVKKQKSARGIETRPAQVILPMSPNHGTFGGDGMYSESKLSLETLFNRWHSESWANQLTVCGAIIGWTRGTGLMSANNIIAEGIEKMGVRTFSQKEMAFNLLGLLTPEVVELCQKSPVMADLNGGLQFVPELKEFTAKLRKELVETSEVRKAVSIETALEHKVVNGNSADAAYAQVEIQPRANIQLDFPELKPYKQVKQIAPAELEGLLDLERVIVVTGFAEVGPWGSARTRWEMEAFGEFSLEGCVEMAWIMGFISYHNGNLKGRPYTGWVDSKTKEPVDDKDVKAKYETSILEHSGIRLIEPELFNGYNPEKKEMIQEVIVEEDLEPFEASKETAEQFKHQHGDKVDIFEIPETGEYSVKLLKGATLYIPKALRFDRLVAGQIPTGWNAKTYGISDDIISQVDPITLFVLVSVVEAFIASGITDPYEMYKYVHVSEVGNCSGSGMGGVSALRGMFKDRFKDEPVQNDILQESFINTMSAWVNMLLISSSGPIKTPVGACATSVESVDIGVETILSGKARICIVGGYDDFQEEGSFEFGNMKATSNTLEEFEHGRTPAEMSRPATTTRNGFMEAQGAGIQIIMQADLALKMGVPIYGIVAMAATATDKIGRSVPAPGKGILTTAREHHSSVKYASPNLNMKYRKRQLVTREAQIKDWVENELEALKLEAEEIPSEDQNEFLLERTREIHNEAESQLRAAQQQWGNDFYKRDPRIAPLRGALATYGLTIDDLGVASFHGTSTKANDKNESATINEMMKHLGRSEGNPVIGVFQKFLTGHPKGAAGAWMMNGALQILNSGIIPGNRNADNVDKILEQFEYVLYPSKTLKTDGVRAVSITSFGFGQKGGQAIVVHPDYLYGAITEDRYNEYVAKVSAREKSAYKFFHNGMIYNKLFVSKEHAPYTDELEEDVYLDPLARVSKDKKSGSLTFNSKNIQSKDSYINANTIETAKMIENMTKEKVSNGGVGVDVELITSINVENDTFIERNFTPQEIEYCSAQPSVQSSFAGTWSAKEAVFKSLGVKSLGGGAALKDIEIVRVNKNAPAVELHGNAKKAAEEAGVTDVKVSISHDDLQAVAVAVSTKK
T1 sequence (P07149 whole entry): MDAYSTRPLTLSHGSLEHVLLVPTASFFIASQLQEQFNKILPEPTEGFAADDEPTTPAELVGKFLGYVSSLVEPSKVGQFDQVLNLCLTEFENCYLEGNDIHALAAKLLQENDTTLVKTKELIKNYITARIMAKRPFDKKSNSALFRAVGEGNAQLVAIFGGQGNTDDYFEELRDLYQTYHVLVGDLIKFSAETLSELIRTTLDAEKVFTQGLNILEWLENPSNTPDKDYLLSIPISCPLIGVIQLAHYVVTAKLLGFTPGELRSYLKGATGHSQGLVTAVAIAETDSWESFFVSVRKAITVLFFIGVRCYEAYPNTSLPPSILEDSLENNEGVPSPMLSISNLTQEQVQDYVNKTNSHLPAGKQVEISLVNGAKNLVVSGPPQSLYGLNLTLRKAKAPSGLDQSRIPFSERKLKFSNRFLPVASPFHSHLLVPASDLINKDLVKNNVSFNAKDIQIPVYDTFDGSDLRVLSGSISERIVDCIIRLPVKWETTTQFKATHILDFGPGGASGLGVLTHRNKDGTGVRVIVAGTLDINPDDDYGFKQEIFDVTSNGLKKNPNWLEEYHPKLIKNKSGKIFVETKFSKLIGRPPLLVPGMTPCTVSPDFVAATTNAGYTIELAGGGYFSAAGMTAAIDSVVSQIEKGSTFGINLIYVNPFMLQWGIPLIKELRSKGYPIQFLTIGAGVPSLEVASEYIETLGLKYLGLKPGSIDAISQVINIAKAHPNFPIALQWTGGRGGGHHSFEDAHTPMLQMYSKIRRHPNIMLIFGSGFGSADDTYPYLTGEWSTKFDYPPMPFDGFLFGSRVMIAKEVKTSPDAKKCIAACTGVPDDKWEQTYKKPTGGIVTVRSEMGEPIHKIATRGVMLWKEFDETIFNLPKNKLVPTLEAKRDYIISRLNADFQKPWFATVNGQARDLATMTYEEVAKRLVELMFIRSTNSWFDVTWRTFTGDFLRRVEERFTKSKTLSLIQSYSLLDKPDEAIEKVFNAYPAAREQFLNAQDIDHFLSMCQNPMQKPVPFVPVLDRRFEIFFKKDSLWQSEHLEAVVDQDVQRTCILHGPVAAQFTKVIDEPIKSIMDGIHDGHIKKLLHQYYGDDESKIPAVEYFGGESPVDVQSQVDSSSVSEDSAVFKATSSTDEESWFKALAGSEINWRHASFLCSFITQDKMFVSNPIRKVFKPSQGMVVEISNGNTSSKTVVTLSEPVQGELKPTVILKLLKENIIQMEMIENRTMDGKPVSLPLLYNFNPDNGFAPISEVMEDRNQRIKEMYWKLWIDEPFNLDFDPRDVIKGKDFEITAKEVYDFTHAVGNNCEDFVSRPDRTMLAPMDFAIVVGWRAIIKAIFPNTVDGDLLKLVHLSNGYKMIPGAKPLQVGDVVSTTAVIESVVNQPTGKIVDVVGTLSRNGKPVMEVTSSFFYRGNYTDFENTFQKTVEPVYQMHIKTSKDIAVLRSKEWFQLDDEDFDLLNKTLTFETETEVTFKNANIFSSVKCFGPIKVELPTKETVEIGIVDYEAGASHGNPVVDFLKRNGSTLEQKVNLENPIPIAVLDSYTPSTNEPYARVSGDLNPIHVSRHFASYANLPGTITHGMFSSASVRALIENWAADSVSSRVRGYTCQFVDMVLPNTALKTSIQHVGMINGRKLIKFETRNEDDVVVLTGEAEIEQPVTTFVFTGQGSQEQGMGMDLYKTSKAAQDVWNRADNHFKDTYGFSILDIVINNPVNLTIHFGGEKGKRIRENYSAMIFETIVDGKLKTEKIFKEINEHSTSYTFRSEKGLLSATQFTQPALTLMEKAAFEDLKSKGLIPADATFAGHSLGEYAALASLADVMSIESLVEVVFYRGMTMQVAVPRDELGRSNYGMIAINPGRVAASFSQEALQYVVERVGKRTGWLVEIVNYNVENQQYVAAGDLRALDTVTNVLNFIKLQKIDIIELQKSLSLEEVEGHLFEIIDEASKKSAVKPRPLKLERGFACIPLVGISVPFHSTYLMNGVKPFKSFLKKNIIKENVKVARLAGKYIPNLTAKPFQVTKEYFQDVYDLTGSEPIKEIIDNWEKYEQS
Put plainly: FAS activity (absorbance at […] nm, malonyl CoA/acetyl CoA/NADPH) in ammonium sulfate-precipitated yeast protein extract. In kind it is biochemical.

For `O=c1c(O)c(-c2ccc(O)c(O)c2)oc2cc(O)cc(O)c12` [QCT, Quercetin], the IC50 (read-out: IC50 (μg/mL) (converted)) is 56.6 µM.

Take `O=C(/C=C/c1ccccc1)c1ccccc1` [T-CHL, Trans-chalcone]: under “read-out: IC50 (converted)”, the IC50 was 328 µM.
